Laboratory results: US6908591B2, “Methods for sterilizing biological materials by irradiation over a temperature gradient” (Clearant, Inc., priority 2002, dated 2005)

Key:
ACL collagen [1] = experiment: SDS-PAGE of purified pepsin-digested collagen, ACL in high salt, low salt, neutral or low pH irradiated at -80° C. to 50 kGy (Example 10)
Protocol: This experiment was to determine whether high salt, low salt, neutral pH and low pH treated ACL will help to deliver stabilizers into ACL tissue to protect it from γ-irradiation at -80° C. with 50 kGy. 1. Prepared stock solution 2M sodium ascorbate (Spectrum […], Lot#QP0839) in water. Samples were prepared with the following: • a) DPBS • b) DPBS/200 mM sodium ascorbate • c) 0.5N HOAc • d) 0.5N HOAc/200 mM sodium ascorbate • e) 20 mM sodium phosphate pH 7.6 • f) 20 mM sodium phosphate pH 7.6/200 mM sodium ascorbate • g) 20 mM sodium phosphate pH 7.6/1M NaCl • h) 20 mM sodium phosphate pH 7.6/1M NaCl/200 mM sodium ascorbate. 2. These samples were irradiated with 0 and 50 kGy at 1.53 kGy/hr at NIST. 4. ACL were digested with pepsin and collagen purified by precipitating with salt.

[2] = Protocol: • Tissue—Porcine Pulmonary Valve (PV) Heart valves were harvested prior to use and stored. • Tissue Preparation Reagents— • Polypropylene Glycol 400.
An additional 1 ml PPG was added and further water bath sonicated.
The 0.5M solution was soluble after a 20-30 minute water bath sonication.

ACL collagen [3] = experiment: Turbidity assay of collagen isolated from ACL irradiated in alcohols (Example 11); format: biochemical; conditions: even at 0.5 mg/ml
Protocol: 7. Turbidity assay was performed for these collagens using at [1 mg/ml].
A turbidity assay was performed for the collagen isolated from these ACL samples. Correlation was found between the ACL collagen before and after irradiation.

type I collagen [4] = experiment: SDS-PAGE of type I collagen irradiated to 45 kGy with stabilizers (Example 17); conditions: gamma irradiation at -20° C.
Protocol: In this experiment, type I collagen at −20° C., −80° C. or freeze-dried at 4° C. were irradiated with gamma radiation to a total dose of 45 kGy in the presence of various stabilizers.
• 1M thiourea (Sigma T8656) in water; • 0.5M coumarin (Sigma CC4261) in ethanol; • 0.5M 0-coumaric acid (Sigma C4400) in ethanol; • 0.5M curcumin (Sigma C1386) in ethanol; • 1M L-cysteine (Sigma C6852) in water; • 1M 1,3-dimethyl-2-thiourea (Aldrich 534-13-4) in water; • 1M 2-mercaptoethylamine (Sigma M6500) in water; and • 1M 1,3-dimethylurea (Sigma D6254) in water. Phosphate buffer solution of 40 mM sodium phosphate and 100 mM NaCl; pH=7.66. Methods: The following samples were prepared to a final volume of 0.5 ml: • 1 mg/ml collagen in 5 mM acetic acid (control); • 1 mg/ml collagen+0.1 M coumaric acid; • 1 mg/ml collagen+5 mM curcumin; • 1 mg/ml collagen+0.1M L-cysteine; • 1 mg/ml collagen+0.1M 1,3-dimethyl-2-thiourea; • 1 mg/ml collagen+0.1M thiourea; • 1 mg/ml collagen+0.1M 2-mercaptoethylamine; and • 1 mg/ml collagen+0.1M 1,3-dimethylurea. The samples were irradiated as follows: • freeze-dried; temperature:4.7° C.; dose rate: 1.656 kGy/hr; total dose:45 kGy; • temperature:−20.5° C.; dose rate:1.537 kGy/hr; total does:45 kGy; and • […]; dose rate:1.530-1.528 kGy/hr;45 kGy. Following irradiation, the samples were analyzed by SDS-PAGE. Additionally, the samples were diluted 1:2 with water to give collagen concentrations of 0.5 mg/ml and a turbidity assay was performed to detect collagen fibril formation. Collagen fibril formation was initiated by adding 100 μl of phosphate buffer solution. The assay was done in triplicate using a microtiter plate reader at 340 nm wavelength.

[5] = system: Porcine Pulmonary Valve (PV) Heart valves; experiment: HPLC and gel analysis of heart valve cusps gamma irradiated to 30 kGy at -20° C. (Example 1); conditions: 1.584 kGy/hr
Protocol: In this experiment, porcine heart valves were gamma irradiated in the presence of polypropylene glycol 400 (PPG400) and, optionally, a scavenger, to a total dose of 30 kGy (1.584 kGy/hr at −20° C.).
5. 1.2 ml of PPG were added to two tubes (one of these tubes was designated 0 kGy and the other tube was designated 30 kGy): • 1.2 ml of 125 mM Trolox C in PPG were added to another two tubes • 1.2 ml of SCb stabilizer mixture—comprising of 1.5 ml 125 mM Trolox C, 300 μl 1 M Lipoic Acid, 600 μl 0.5 M Coumaric Acid and 600 μl 0.5 M n-Propyl Gallate (Final concentrations: 62.5 mM, 100 mM, 100 mM and 100 mM respectively) were added to the final two tubes.
6. Tubes were incubated at 4° C., with rocking for about 60 hours.
Samples were irradiated at a rate of 1.584 kGy/hr at −20° C. to a total dose of 30 kGy.
3. Samples were weighed, transferred to hydrolysis vials and 6 N HCl added at a volume of 20 mg tissue/ml HCl:
4. Samples were hydrolyzed at 110° C. for approximately 23 hours.

type I collagen [6] = experiment: Turbidity assay of collagen fibril formation after irradiation (Example 17); format: biochemical; conditions: 45 kGy
Protocol: Phosphate buffer solution of 40 mM sodium phosphate and 100 mM NaCl; pH=7.66. Methods: […] Following irradiation, the samples were analyzed by SDS-PAGE. Additionally, the samples were diluted 1:2 with water to give collagen concentrations of 0.5 mg/ml and a turbidity assay was performed to detect collagen fibril formation. Collagen fibril formation was initiated by adding 100 μl of phosphate buffer solution. The assay was done in triplicate using a microtiter plate reader at 340 nm wavelength.

ACL collagen [7] = experiment: SDS-PAGE densitometry of purified pepsin-digested collagen, ACL in alcohols irradiated at -80° C. to 50 kGy (Example 11); conditions: 1.53 kGy/hr
Protocol: This experiment was to determine whether alcohols can protect ACL tissue samples from γ-irradiation at −80° C. with 50 kGy. 1. […] 2. These samples were then incubated with different alcohols for 2 hr in a shaking incubator at 37° C. 3. After 2 hr incubation, these ACL tubes were decanted and fresh solutions were added to each ACL containing tubes and incubated overnight at −80° C. 4. These samples were irradiated with 0 and 50 kGy at 1.53 kGy/hr at NIST. 6. ACL were digested with pepsin and collagen purified by precipitating with salt. 8. Ran 10 μg of each purified pepsin-digested collages on 4-12% gel and quantified both alpha 1 and alpha 2 chains.

porcine AV heart valves = experiment: HPLC analysis of frozen AV heart valve cusps irradiated to 30 kGy at -20° C. (Example 3); conditions: 1.584 kGy/hr
Protocol: In this experiment, frozen porcine AV heart valves soaked in various solvents were gamma irradiated to a total dose of 30 kGy at 1.584 kGy/hr at −20° C. 5. […] 6. Incubated tubes at 4° C. with nutating for ˜46 hours. 9. Frozen samples were then irradiated at −20° C. at a rate of 1.584 kGy/hr to a total dose of 30 kGy.

collagen = experiment: Turbidity assay of liquid and gel collagen irradiated on dry ice (Example 18); format: biochemical; conditions: frozen on dry ice, 48.73 to 53.38 kGy
Protocol: The samples were gamma irradiated at […] (frozen on dry ice) at dose rates of […] to a total dose of 48.73 to 53.38 kGy. The irradiated samples were analyzed by SDS-PAGE. Additionally, the samples were diluted 1:2 with water to give collagen concentrations of 0.5 mg/ml and a turbidity assay was performed to detect collagen fibril formation. Collagen fibril formation was initiated by adding 100 μl of phosphate buffer solution. The assay was done in triplicate using a microtiter plate reader at 340 nm wavelength.

[8] = system: porcine ACL extractable proteins; experiment: Guanidine HCl extracts of freeze dried ACL irradiated to 45 kGy: SDS-PAGE, BCA assay, densitometry (Example 6); conditions: 45 kGy versus 0 kGy control
Protocol: Guanidine HCL extraction was done with 4 M GuHCl in 0.5 NaOAC pH 5.8 and 5 mM EDTA, 10 mM NEM, 5 mM Benzamidine and 1 mM PMSF to a final concentration of […] of extraction buffer. The samples were incubated at 4° C. on a nutator for 2 days.
A BCA assay was performed on the dialysates of the PPG+cocktail guanidine extracted samples to determine the total protein concentration in the samples.
Using BCA and SDS-PAGE on the PPG+Cocktail sample, guanidine extracts were evaluated based on SDS-PAGE of equal protein load. The protein concentrations were as follows:
Densitometry was performed on two different protein bands, as follows: […]

Compound: CC(=O)O [0.5N HOAc, acetic acid]
- yield of purified pepsin-digested collagen at 50 kGy (ACL collagen [1]; without ascorbate, -80° C.): 73%

Compound: O=C(O)/C=C/c1ccc(O)cc1 [Coumaric Acid]
- solubility of the stock solution in PPG [2]: not 100% soluble

Compound: CC(O)CO (stereo not shown) [propanediol, 1,2-propanediol]
- fibril formation in turbidity assay (ACL collagen [3]): could not form fibrils

Compound: COc1cc(/C=C/C(=O)CC(=O)/C=C/c2ccc(O)c(OC)c2)ccc1O [curcumin]
- protective effect on collagen (type I collagen [4]): less than that observed with thiourea and 1,3-dimethyl-2-thiourea

Compound: CCCOC(=O)c1cc(O)c(O)c(O)c1 [n-Propyl Gallate]
- solubility of the stock solution in PPG [2]: soluble

Compound: polypropylene glycol 400 [PPG 400]
- HPLC analysis, irradiated versus not irradiated heart valve [5]: nearly identical

Compound: CNC(=S)NC [1,3-dimethyl-2-thiourea]
- fibril formation after irradiation (turbidity assay) (type I collagen [6]): could form fibrils after irradiation
- fibril formation after irradiation (turbidity assay) (type I collagen [6]; irradiated at -80° C.): could form fibrils after irradiation

Compound: CNC(=O)NC [1,2-dimethylurea, 1,3-dimethylurea]
- protective effect on collagen (type I collagen [4]): less than that observed with thiourea and 1,3-dimethyl-2-thiourea

Compound: N[C@@H](CS)C(=O)O [cysteine, L-cysteine]
- fibril formation after irradiation (turbidity assay) (type I collagen [6]; irradiated at -80° C.): could form fibrils after irradiation
- protective effect on collagen (type I collagen [4]): less than that observed with thiourea and 1,3-dimethyl-2-thiourea

Compound: NCCS [2-mercaptoethylamine]
- fibril formation after irradiation (turbidity assay) (type I collagen [6]; irradiated at -80° C.): could form fibrils after irradiation
- protective effect on collagen (type I collagen [4]): less than that observed with thiourea and 1,3-dimethyl-2-thiourea

Compound: CCO [ethanol]
- yield for 50 kGy ACL collagen based on the densitometry of alpha 1 and 2 chains (ACL collagen [7]): 77%
- fibril formation in turbidity assay (ACL collagen [3]): could not form fibrils

Compound: Cc1c(C)c2c(c(C)c1O)CCC(C)(C(=O)O)O2 (stereo not shown) [Trolox C, 6-hydroxy-2,5,7,8-tetramethylchroma-2 carboxylic acid]
- solubility of the stock solution in PPG [2]: not soluble
- soluble at (in PPG) [2]: 125 mM

Compound: C[S+](C)[O-] [DMSO, dimethyl sulfoxide]
- HPLC analysis, preservation of peaks after irradiation (porcine AV heart valves; listed as 20% DMSO): reproduced these peaks more faithfully
- HPLC analysis, preservation of peaks after irradiation (porcine AV heart valves; listed as 50% DMSO): slightly more effective

Compound: O=C1O[C@H]([C@@H](O)CO)C([O-])=C1O.[Na+] [ascorbate, sodium ascorbate]
- protection of gel or liquid collagen (turbidity assay) (collagen): most effective
- yield of purified pepsin-digested collagen at 50 kGy (ACL collagen [1]; with ascorbate (200 mM) in 20 mM sodium phosphate pH 7.6 without salt, -80° C.): 75%
- yield of purified pepsin-digested collagen at 50 kGy (ACL collagen [1]; with ascorbate (200 mM) in 0.5N HOAc pH 3.4, -80° C.): 83%
- yield of purified pepsin-digested collagen at 50 kGy (ACL collagen [1]; with ascorbate (200 mM) in high salt (20 mM sodium phosphate pH 7.6/1M NaCl), -80° C.): 40%
- protection of guanidine extractable proteins by SDS-PAGE [8]: most promising results

Compound: C[N+](C)(C)[C@@H](Cc1c[nH]c(=S)[nH]1)C(=O)[O-] [ergothionine]
- protection of guanidine extractable proteins by SDS-PAGE [8]: good protection of proteins in the lower ⅔ of the gel

Compound: N[C@@H](Cc1c[nH]cn1)C(=O)O [histidine, L-histidine]
- protection of guanidine extractable proteins by SDS-PAGE [8]: most promising results

Compound: OC[C@H]1O[C@H](O[C@H]2O[C@H](CO)[C@@H](O)[C@H](O)[C@H]2O)[C@H](O)[C@@H](O)[C@@H]1O [Trehalose, D(+)-trehalose]
- protection of guanidine extractable proteins by SDS-PAGE [8]: least protection

Compound: CC(O)C(C)O (stereo not shown) [butanediol, 2,3-butanediol]
- yield for 50 kGy ACL collagen based on the densitometry of alpha 1 and 2 chains (ACL collagen [7]): 88%
